Experimental data reported in patent US5795977A, “Water soluble adenosine kinase inhibitors” (Metabasis Therapeutics, Inc., priority 1996, dated 1998).
Counter-ions that a name gives are not always drawn. Like-named read-outs stand apart in the source and are kept apart here.

What was measured:
Female SA rats = assay: Liver toxicity assay; type: in vivo; conditions: rat, i.v. infusion, total dose 75 μmole/kg, serum
Description: Female SA rats (150-200 g) are anesthetized with halothane and cannulated via the internal jugular vein. The animals are allowed to recover for 3 days. At this time, 37.5 μmole/kg of an AK inhibitor is dissolved in 50% PEG400 and infused through the jugular catheter over 20 minutes. Twelve hours later, an additional 37.5 μmole/kg is infused over 20 minutes (total dose =75 μmole/kg). […] Liver enzymes (serum glutamic-oxaloacetic transaminase (SGOT), serum glutamic-pyruvic transaminase (SGPT), alkaline phosphatase) and total bilirubin in the serum samples are determined by a commercial laboratory.

Rats (carrageenan paw) = assay: Anti-inflammatory activity, carrageenan paw swelling; type: in vivo; conditions: rat, 10 mg/kg, swelling after 3 hours; for Carrageenan Paw (% inhibition) po: oral gavage
Description: Carrageenan (Type λ) was suspended in sterile PBS at 1% (w/v), autoclaved for 30 minutes, and stored at room temperature. Rats were pretreated with vehicle or AK inhibitor (10 mg/kg) by oral gavage or i.p. administration and the volume of the left hind paw was measured using a water displacement plethysmometer (Stoelting Co., Wood Dale, Ill.). One hour after oral treatment or 30 minutes after i.p. treatment, the rats were briefly anesthetized, and 0.1 ml of the carrageenan solution was injected subcutaneously into the planar surface of the left hind paw. The ensuing paw swelling was measured by plethysmometry after 3 hours. The paw volume in millileters was […]. Data are presented in Table 2 as the percent inhibition of paw swelling in AK inhibitor treated animals, compared to vehicle treated control animals.

[1] = molecular target: partially purified pig heart adenosine kinase or recombinant human adenosine kinase; assay: AK inhibition; type: biochemical; conditions: 0.5 μM [U-14C] adenosine, pH 7.0, 37° C., 20 minutes
Description: Adenosine kinase activity was measured essentially as described by Yamada et al. Biochim. Biophys. Acta 660, 36-43 (1988) with a few minor modifications. Assay mixtures contained 50 mM TRIS-maleate buffer, pH 7.0, 0.1% BSA, 1 mM ATP 1 mM MgCl2, 0.5 μM [U-^14 C] adenosine (400-600 mCi/mmol) and varying duplicate concentrations of inhibitor. […] The amount of ^14 C-AMP was quantified by scintillation counting.

[2] = tested on: male SA rats (maximal electroshock seizures); assay: Anticonvulsant activity, maximal electroshock seizures (MES); type: in vivo; conditions: rat, po, fasted; >> = no activity at the stated dose
Description: The anticonvulsant activity of the tested compounds was evaluated in male SA rats (100-150g, Simonsen) using the maximal electroshock (MES) model described in Swinyard et al., Antiepileptic Drugs, 3d Ed. at 85-102 (Levy, et al., eds.), NY: Raven Press (1989). The rats were maintained on a 12/12 light/dark cycle in temperature controlled facilities with free access to food and water. For p.o. administration, the animals are fasted overnight, prior to the experiment. One to two hours prior to seizure testing, the animals were injected interperitoneally (ip) or orally (per os, po) with one of various doses of test compound dissolved in DMSO or PEG 400.
This endpoint was expressed as the percentage of animals in which the response was inhibited.

mice [3] = assay: HPLC analysis of plasma, metabolism in mice; type: in vivo, mouse; conditions: oral, 10 mg/kg
mice [4] = conditions: cited from earlier work
[5] = tested on: isolated guinea pig hearts; conditions: in the absence of ADA inhibition; cited from earlier work
ischemic cerebral injury = conditions: in vivo; cited from earlier work
isolated rat hearts = conditions: alone, cited from earlier work
rat cardiomyocytes = conditions: inhibition of adenosine deaminase alone; cited from earlier work

## OC[C@@H]1O[C@@H](n2cc(-c3ccccc3)c3c(Nc4ccc(CCN5CCNCC5)cc4)ncnc32)[C@H](O)[C@@H]1O [Compound 12, 4-N-[4-(1-piperazinoethyl)phenyl]amino-5-phenyl-7-α-L-lyxofuranosylpyrrolo[2,3-d]pyrimidine]
Female SA rats
  Alkaline Phosphatase: 106 IU/L
  SGOT: 211 IU/L
  SGPT: 76 IU/L
  Total Bilirubin: 0.41 mg/dL
Rats (carrageenan paw)
  Carrageenan Paw (% inhibition) ip: 58.8%
  Carrageenan Paw (% inhibition) po: 51.0%
[1]
  IC50: 0.3 nM

## CCN(CC)CCNCCc1ccc(Nc2ncnc3c2c(-c2ccccc2)cn3[C@@H]2O[C@H](C)[C@@H](O)[C@H]2O)cc1 [Compound 5, 4-N-[4-(2-(2-N,N-diethylaminoethyleneamino)ethyl)phenyl]amino-5-phenyl-7-(5-deoxy-β-D-ribofuranosyl)pyrrolo[2,3-d]pyrimidine]
[2]
  ED50: > 10 mg/kg
Rats (carrageenan paw)
  Carrageenan Paw (% inhibition) ip: 0.0%
  Carrageenan Paw (% inhibition) po: 4.1%
[1]
  IC50: 1 nM

## C[C@H]1O[C@@H](n2cc(I)c3c(NCCc4ccccn4)ncnc32)[C@H](O)[C@@H]1O [Compound 43, 4-N-(2-(2-pyridylethyl)amino)-5-iodo-7-(5-deoxy-1-β-D-ribofuranosyl)pyrrolo[2,3-d]pyrimidine]
Mice [3]
  metabolism to a potent AK inhibitor, HPLC analysis of plasma: undergo metabolism in mice after oral administratio
[1]
  IC50: 10000 nM

## C[C@H]1O[C@@H](n2cc(-c3cccc(NC(=N)N)c3)c3c(Nc4ccc(F)cc4)ncnc32)[C@H](O)[C@@H]1O [Compound 206, 4-N-(4-fluorophenyl)amino-5-(3-guanidinophenyl)-7-(5-deoxy-1-β-D-ribofuranosyl)pyrrolo[2,3-d]pyrimidine]
Rats (carrageenan paw)
  Carrageenan Paw (% inhibition) ip: 10.1%
  Carrageenan Paw (% inhibition) po: 23.5%
[1]
  IC50: 7 nM

## C[C@H]1O[C@@H](n2cc(-c3ccccc3)c3c(Nc4ccc(CCS(=O)(=O)O)cc4)ncnc32)[C@H](O)[C@@H]1O [Compound 265, 4-N[4-(2-Sulfonyloxyethyl)phenylamino]-5-phenyl-7-(5-deoxy-1-β-D-ribofuranosyl)pyrrolo[2,3-d]pyrimidine]
Rats (carrageenan paw)
  Carrageenan Paw (% inhibition) ip: 10.0%
  Carrageenan Paw (% inhibition) po: 6.2%
[1]
  IC50: 2 nM

## C[C@H]1O[C@@H](n2cc(I)c3c(N)ncnc32)[C@H](O)[C@@H]1O [REF.A, reference compound]
Female SA rats
  SGPT: 76 IU/L
  Total Bilirubin: 0.76 mg/dL
Mice [4]
  flaccidity (skeletal muscle relaxation): pronounced general flaccidity

## CC(=O)Nc1ccc(Nc2ncnc3c2c(I)cn3[C@@H]2O[C@H](C)[C@H]3OC(C)(C)O[C@H]32)cc1 [Compound 29, 4-N-[4-(N-acetylamino)phenyl]amino-5-iodo-7-(1-β-D-5-deoxy-2,3-O-isopropylideneribose)pyrrolo[2,3-d]pyrimidine]
Rats (carrageenan paw)
  Carrageenan Paw (% inhibition) ip: 26.1%
  Carrageenan Paw (% inhibition) po: 14.9%
[1]
  IC50: 0.5 nM

## NC[C@H]1O[C@@H](n2cnc3c(N)ncnc32)[C@H](O)[C@@H]1O [5'-amino-5'-deoxyadenosine]
[5]
  effect on adenosine release: not apparent

## Nc1ncnc2c1c(I)cn2[C@@H]1O[C@H](CO)[C@@H](O)[C@H]1O [5-iodotubercidin]
Ischemic cerebral injury
  protection against ischemic cerebral injury: does not protect against ischemic cerebral injury
Isolated rat hearts; hypoxic, anoxic or ischemic conditions
  perfusate adenosine concentration: no increase in perfusate adenosine concentration
Isolated rat hearts; normoxic conditions
  perfusate adenosine concentration: no increase in perfusate adenosine concentration
Mice [4]
  flaccidity (skeletal muscle relaxation): pronounced general flaccidity

## C[C@H]1O[C@@H](n2cc(-c3ccccc3)c3c(Nc4ccc(CCN(C)C)cc4)ncnc32)[C@H](O)[C@@H]1O [Compound 7, 4-N-[4-(2-N,N-dimethylaminoethyl)phenyl]amino-5-phenyl-7-(5-deoxy-β-D-ribofuranosyl)pyrrolo[2,3-d]pyrimidine]
Rats (carrageenan paw)
  Carrageenan Paw (% inhibition) ip: 19.0%
  Carrageenan Paw (% inhibition) po: 7.7%
[1]
  IC50: 1 nM

## NC[C@H]1O[C@@H](n2nc(Br)c3c(N)ncnc32)[C@H](O)[C@@H]1O [REF.B, 4amino-1-(5-amino-5-deoxy-1-D-ribofuranosyl)-3-bromopyrazolo[3,4d]pyrimidne HCL, reference compound]
Female SA rats
  SGOT: 100 IU/L
  SGPT: 41 IU/L
  Total Bilirubin: 0.30 mg/dL

## C[C@H]1O[C@@H](n2cc(-c3ccccc3)c3c(Nc4ccc(CN(C)C)cc4)ncnc32)[C@H](O)[C@@H]1O [Compound 1, 4-N-(4-(N,N-Dimethylaminomethyl)phenyl)amino-5-phenyl-7-(5-deoxy-β-D-ribofuranosyl)pyrrolo[2,3-d]pyrimidine]
Female SA rats
  Alkaline Phosphatase: 131 IU/L
  SGOT: 75 IU/L
  SGPT: 44 IU/L
Rats (carrageenan paw)
  Carrageenan Paw (% inhibition) ip: 26.0%

## OC[C@H]1O[C@@H](n2cnc3c2N=CNC[C@H]3O)C[C@@H]1O [2'-deoxycoformycin]
Rat cardiomyocytes
  adenosine release: no effect on adenosine release

## C[C@H]1O[C@@H](n2cc(-c3ccccc3)c3c(Nc4ccc(CCNC(=O)c5cccnc5)cc4)ncnc32)[C@H](O)[C@@H]1O [Compound 268, 4-N-[2-(Nicotinylaminoethyl)phenyl]amino-5-phenyl-7-(5-deoxy-1-β-D-ribofuranosyl)pyrrolo(2,3-d)pyrimidine]
Rats (carrageenan paw)
  Carrageenan Paw (% inhibition) ip: 0.0%
  Carrageenan Paw (% inhibition) po: 7.1%
[1]
  IC50: 1 nM

## C[C@H]1O[C@@H](n2cc(-c3ccccc3)c3c(NCc4ccncc4)ncnc32)[C@H](O)[C@@H]1O [Compound 49, 4-N-(4-pyridylmethyl)amino-5-phenyl-7-(5-deoxy-1-β-D-ribofuranosyl)-pyrrolo[2,3-d]pyrimidine]
[2]
  ED50: > 40 mg/kg
[1]
  IC50: 67 nM

## CCN(CC)CCc1ccc(Nc2ncnc3c2c(-c2ccccc2)cn3[C@@H]2O[C@H](C)[C@@H](O)[C@H]2O)cc1 [Compound 6, 4-N-[4-(2-N,N-diethylaminoethyl)phenyl]amino-5-phenyl-7-(5-deoxy-β-D-ribofuranosyl)pyrrolo[2,3-d]pyrimidine]
Female SA rats
  Alkaline Phosphatase: 104 IU/L
  SGOT: 306 IU/L
  SGPT: 110 IU/L
  Total Bilirubin: 0.43 mg/dL
Rats (carrageenan paw)
  Carrageenan Paw (% inhibition) ip: 81.5%
  Carrageenan Paw (% inhibition) po: 42.6%
[1]
  IC50: 1 nM
